Patent US20250295683A1, “HETEROCYCLIC COMPOUND, PREPARATION METHOD THEREFOR AND APPLICATION THEREOF” (SICHUAN KELUN-BIOTECH BIOPHARMACEUTICAL CO., LTD., priority 2022, published 2025)

Assays:
whole blood of rat = test: Fibrinolysis effect shown by thromboelastography (TEG) with u-PA; conditions: for Ma (strength of the blood clot formed): rat whole blood; for Thrombolytic activity compared with the positive compound: according to the Ma values and thromboelastograms
Protocol: Main Instruments and Reagents: thromboelastography TEG (Udibio); urokinase-type plasminogen activator (u-PA) (Aladdin); reagent 1 (the main component is kaolin); reagent 2 (main component is calcium chloride).
• (1) Test group setting: uPA group: urokinase-type plasminogen activator (u-PA) (1000 U/ml); positive compound/compound 2-1/compound 2-2 group: test compound (200 μM)+u-PA (1000 U/ml); blank group: vehicle. • (2) Formulation of compound solution: the compound was formulated using a 0.5 mg/ml trometamol solution to obtain a 4 mM mother solution, adjusted to pH 9, and diluted to a 2 mM 10× mother solution. The final test concentration was 200 μM. u-PA was formulated as a 50,000 U/ml mother solution using normal saline, and diluted to a 10,000 U/ml 10× mother solution. The final test concentration was 1000 U/ml. • (3) Test: 100 μL of u-PA was added to a sample cup (containing reagent 1) containing 800 μL of the whole blood of rat (anticoagulated with sodium citrate), 100 μL of the test compound was added, and the cup was inverted to mix well. 340 μL of the sample from the sample cup was added to the reaction cup containing 20 μL of reagent 2, and the instrument was allowed to run. The results are shown in Table 2-1, Table 2-2, Table 2-3, FIG. 1, FIG. 2 and FIG. 3. The compound concentration as shown in Table 2-1, Table 2-2, FIG. 1 and FIG. 2 was 200 μM; and the compound concentration as shown in Table 2-3 and FIG. 3 was 100 μM.

Plasminogen (Glu-Typ) = target: T1, Plasminogen (Glu-Typ) (Homo sapiens, UniProt P00747); test: Activation effect of the compounds on plasminogen (Glu-Typ), u-PA / VLK-pNA kinetic assay; assay type: biochemical; conditions: for Activation multiples (5 min): slope of A405 vs t^2 divided by slope of control group; for Activation potency on plasminogen compared with the positive compound: at the same concentration
T1 construct: Plasminogen (Glu-Typ) (sigma); purchased sigma (plasminogen); Aladdin (u-PA)
T1 sequence (P00747 20-810 limits assumed): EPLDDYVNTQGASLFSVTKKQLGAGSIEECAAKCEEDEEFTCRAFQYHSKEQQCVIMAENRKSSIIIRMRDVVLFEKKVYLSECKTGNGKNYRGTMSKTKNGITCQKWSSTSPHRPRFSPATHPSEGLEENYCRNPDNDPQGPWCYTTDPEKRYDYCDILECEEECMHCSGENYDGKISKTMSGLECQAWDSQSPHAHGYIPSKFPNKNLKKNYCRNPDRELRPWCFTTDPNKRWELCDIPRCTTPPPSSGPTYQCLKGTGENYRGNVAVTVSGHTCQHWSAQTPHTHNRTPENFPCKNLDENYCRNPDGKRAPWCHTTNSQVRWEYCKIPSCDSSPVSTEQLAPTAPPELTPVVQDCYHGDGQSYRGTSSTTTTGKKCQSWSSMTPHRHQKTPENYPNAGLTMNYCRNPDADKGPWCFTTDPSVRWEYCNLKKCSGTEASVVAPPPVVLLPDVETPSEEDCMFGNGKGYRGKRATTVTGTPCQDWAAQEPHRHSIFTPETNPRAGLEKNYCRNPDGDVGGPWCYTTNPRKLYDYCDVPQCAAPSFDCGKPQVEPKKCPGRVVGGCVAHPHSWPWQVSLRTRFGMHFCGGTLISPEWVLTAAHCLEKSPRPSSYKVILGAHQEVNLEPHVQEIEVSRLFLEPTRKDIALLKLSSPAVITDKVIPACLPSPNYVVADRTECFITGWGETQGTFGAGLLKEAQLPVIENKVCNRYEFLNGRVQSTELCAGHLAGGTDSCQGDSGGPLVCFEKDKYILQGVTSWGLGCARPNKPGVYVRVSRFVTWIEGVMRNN
Protocol: (1) Formulation of Compounds The test compounds of the present invention and the positive compound are all set at three concentration points, i.e., 200 μM, 150 μM and 100 μM, respectively; the final concentration in DMSO was 2.5%.
Plasminogen (Glu-Typ) (sigma); urokinase-type plasminogen activator (u-PA) (Aladdin); vLK-pNA (absin); Multifunctional microplate reader (Thermo).
Plasminogen, the urokinase-type Plasminogen activator (u-PA) and VLK-pNA were formulated in a buffer [Tris-HCl (50 mM, pH 7.4)+NaCl (100 mM)+Tween-80 (0.01%)] to obtain mother solutions at concentrations of 100 nM (5×), 100 IU/ml (5×), and 5 mM (5×), respectively. 20 μl of 5× Plasminogen (Glu-Typ), 20 μl of 5× urokinase-type Plasminogen activator (u-PA) and 20 μl of 5×VLK-pNA were added to a 96-well plate. After mixing uniformly, 40 μl of the test compounds or positive compound were added to the 96-well plate, and a control group (no compound) was set up. The mixture was uniformly mixed well. The kinetic detection was performed using a Thermo multifunctional microplate reader, the detection wavelength was 405 nm, and the activation factor was calculated.
The following results were obtained by plotting the absorbance value at 405 nm (A405) versus time squared (t^2), using the slope of the curve for analysis, and calculating the activation multiples by dividing the slope of the compound group by the slope of the control group (see Table 1-1 and Table 1-2).

[1] = in vivo; cited from earlier work
[2] = stroke resulting from acute occlusion of large vessels; cited from earlier work
[3] = Table 2-1, compound 200 μM + u-PA 1000 U/ml
[4] = Table 2-2, compound 200 μM + u-PA 1000 U/ml
[5] = Table 2-3, compound 100 μM + u-PA 1000 U/ml

Row | Activation multiples (5 min) (Plasminogen (Glu-Typ); Table 1-1, compound 100 μM) | Activation multiples (5 min) (Plasminogen (Glu-Typ); Table 1-1, compound 150 μM) | Activation multiples (5 min) (Plasminogen (Glu-Typ); Table 1-1, compound 200 μM) | Activation multiples (5 min) (Plasminogen (Glu-Typ); Table 1-2, compound 100 μM) | Activation multiples (5 min) (Plasminogen (Glu-Typ); Table 1-2, compound 150 μM) | Activation multiples (5 min) (Plasminogen (Glu-Typ); Table 1-2, compound 200 μM) | Compound | Ma (strength of the blood clot formed) (whole blood of rat; [3]) [mm] | Ma (strength of the blood clot formed) (whole blood of rat; [4]) [mm] | Ma (strength of the blood clot formed) (whole blood of rat; [5]) [mm] | Thrombolytic activity compared with the positive compound (whole blood of rat) | Activation potency on plasminogen compared with the positive compound (Plasminogen (Glu-Typ)) | half-life [1] [min] | recanalization rate after intravenous thrombolysis [2] [%]
1 | 1.71 | 2.62 | 8.62 | 3.02 | 4.54 | 12.49 | CC(C)=CCC/C(C)=C/CC[C@@]1(C)Oc2c(c(O)cc3c2CN(CCC[C@@H](C(=O)O)N2Cc4c(cc(O)c5c4O[C@](C)(CC/C=C(\C)CCC=C(C)C)[C@@H](O)C5)C2=O)C3=O)C[C@@H]1O [Positive compound, reference compound] | 72.9 | 73.1 | 76.4 |  |  |  | 
2 |  |  |  |  |  |  | CC(C)=CCC/C(C)=C/CC[C@@]1(C)Oc2c(c(OC(=O)N3CC[S+]([O-])CC3)cc3c2CN(CCC[C@@H](C(=O)O)N2Cc4c(cc(OC(=O)N5CC[S+]([O-])CC5)c5c4O[C@](C)(CC/C=C(\C)CCC=C(C)C)[C@@H](O)C5)C2=O)C3=O)C[C@@H]1O [Compound 2-6, (S)-2,5-bis((2R,3S)-2-((E)-4,8-dimethylnona-3,7-dien-1-yl)-5-((1-oxothiomorpholino-4-carbonyl)oxy)-3-hydroxy-2-methyl-7-oxo-3,4,7,9-tetrahydropyrano[2,3-E]isoindol-8(2H)-yl)pentanoic acid] |  |  | 8.8 | superior thrombolytic activity to the positive compound |  |  | 
3 |  |  |  | 4.65 | 52.96 | 90.00 | CC(C)=CCC/C(C)=C/CC[C@@]1(C)Oc2c(c(OC(=O)N3CCS(=O)(=O)CC3)cc3c2CN(CCC[C@@H](C(=O)O)N2Cc4c(cc(OC(=O)N5CCS(=O)(=O)CC5)c5c4O[C@](C)(CC/C=C(\C)CCC=C(C)C)[C@@H](O)C5)C2=O)C3=O)C[C@@H]1O [Compound 2-5, (S)-2,5-bis((2R,3S)-2-((E)-4,8-dimethylnona-3,7-dien-1-yl)-5-((1,1-dioxothiomorpholino-4-carbonyl)oxy)-3-hydroxy-2-methyl-7-oxo-3,4,7,9-tetrahydropyrano[2,3-E]isoindol-8(2H)-yl)pentanoic acid] |  | 1.9 |  | superior thrombolytic activity to the positive compound | better activation potency on plasminogen than the positive compounds |  | 
4 | 6.66 | 21.12 | 42.23 |  |  |  | CC(C)=CCC/C(C)=C/CC[C@@]1(C)Oc2c(c(OC(=O)N3CCOCC3)cc3c2CN(CCC[C@@H](C(=O)O)N2Cc4c(cc(OC(=O)N5CCOCC5)c5c4O[C@](C)(CC/C=C(\C)CCC=C(C)C)[C@@H](O)C5)C2=O)C3=O)C[C@@H]1O [Compound 2-2, (S)-2,5-bis((2R,3S)-2-((E)-4,8-dimethylnona-3,7-dien-1-yl)-3-hydroxy-2-methyl-5-((morpholino-4-carbonyl)oxy)-7-oxo-3,4,7,9-tetrahydropyrano[2,3-e]isoindol-8(2H)-yl)pentanoi c acid] | 4.7 |  |  | superior thrombolytic activity to the positive compound | better activation potency on plasminogen than the positive compounds |  | 
5 |  |  |  |  |  |  | rt-PA: Recombinant tissue plasminogen activator |  |  |  |  |  | 3 to 5 | ≤ 25

Row | Compound | Activation multiples (5 min) (Plasminogen (Glu-Typ); Table 1-1, compound 100 μM) | Activation multiples (5 min) (Plasminogen (Glu-Typ); Table 1-1, compound 150 μM) | Activation multiples (5 min) (Plasminogen (Glu-Typ); Table 1-1, compound 200 μM) | Activation multiples (5 min) (Plasminogen (Glu-Typ); Table 1-2, compound 100 μM) | Activation multiples (5 min) (Plasminogen (Glu-Typ); Table 1-2, compound 150 μM) | Activation multiples (5 min) (Plasminogen (Glu-Typ); Table 1-2, compound 200 μM) | Ma (strength of the blood clot formed) (whole blood of rat; [3]) [mm] | Ma (strength of the blood clot formed) (whole blood of rat; [4]) [mm] | Ma (strength of the blood clot formed) (whole blood of rat; [5]) [mm] | Thrombolytic activity compared with the positive compound (whole blood of rat) | Activation potency on plasminogen compared with the positive compound (Plasminogen (Glu-Typ)) | half-life [1] [min] | recanalization rate after intravenous thrombolysis [2] [%]
6 | CC(C)=CCC/C(C)=C/CC[C@@]1(C)Oc2c(c(OC(=O)N(C)C)cc3c2CN(CCC[C@@H](C(=O)O)N2Cc4c(cc(OC(=O)N(C)C)c5c4O[C@](C)(CC/C=C(\C)CCC=C(C)C)[C@@H](O)C5)C2=O)C3=O)C[C@@H]1O [Compound 2-1, (S)-2,5-bis((2R,3S)-5-((dimethylcarbamoyl)oxy)-2-((E)-4,8-dimethylnona-3,7-dien-1-yl)-3-hydroxy-2-methyl-7-oxo-3,4,7,9-tetrahydropyrano[2,3-E]isoindol-8(2H)-yl)pentanoic acid] | 5.22 | 15.93 | 42.97 |  |  |  | 4.7 |  |  | superior thrombolytic activity to the positive compound | better activation potency on plasminogen than the positive compounds |  | 
